Test results from PMC4022671, “Characterization of Mannitol-2-Dehydrogenase in Saccharina japonica: Evidence for a New Polyol-Specific Long-Chain Dehydrogenases/Reductase” (PLoS ONE, 2014).

Target: T1, SjM2DH (mannitol-2-dehydrogenase) (Saccharina japonica, UniProt R9UHL6)
T1 construct: assayed in cell-free extract
Assay: NADH depletion at OD340, crude E. coli extract with recombinant enzyme
Type: biochemical
Details: NADH 1 mM, fructose 100 mM, 100 mM Tris-HCl pH 7.5, 35 °C

T1 sequence (R9UHL6 entry or part of it): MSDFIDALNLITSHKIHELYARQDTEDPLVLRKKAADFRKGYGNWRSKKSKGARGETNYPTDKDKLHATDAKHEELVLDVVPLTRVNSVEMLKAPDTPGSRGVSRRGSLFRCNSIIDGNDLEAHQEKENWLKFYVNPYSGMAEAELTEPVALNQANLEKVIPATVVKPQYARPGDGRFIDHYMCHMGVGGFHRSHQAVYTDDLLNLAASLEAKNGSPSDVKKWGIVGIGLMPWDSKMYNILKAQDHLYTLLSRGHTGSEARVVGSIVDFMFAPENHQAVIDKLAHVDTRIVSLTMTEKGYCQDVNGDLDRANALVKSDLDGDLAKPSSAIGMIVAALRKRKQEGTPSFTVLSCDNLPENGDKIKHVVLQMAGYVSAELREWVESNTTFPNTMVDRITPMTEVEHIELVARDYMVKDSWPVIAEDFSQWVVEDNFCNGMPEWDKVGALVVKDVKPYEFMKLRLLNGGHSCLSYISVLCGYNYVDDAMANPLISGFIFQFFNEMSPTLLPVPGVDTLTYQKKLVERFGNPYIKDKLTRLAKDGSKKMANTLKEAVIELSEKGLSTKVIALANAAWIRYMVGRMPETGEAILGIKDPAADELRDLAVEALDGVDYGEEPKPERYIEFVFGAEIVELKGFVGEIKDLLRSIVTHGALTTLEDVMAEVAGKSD

SMILES	NADH depletion at OD340, crude E. coli extract with recombinant enzyme
OCC1(O)OC[C@@H](O)[C@@H](O)[C@@H]1O (stereo partly drawn) [D-fructose]	When D-fructose was applied as the substrate, a depletion of NADH was detected
NC(=O)C1=CN([C@@H]2O[C@H](COP(=O)(O)OP(=O)(O)OC[C@H]3O[C@@H](n4cnc5c(N)ncnc54)[C@H](O)[C@@H]3O)[C@@H](O)[C@H]2O)C=CC1 [NADH]	reduction of fructose by recombinant SjM2DH exclusively uses NADH as cofactor
